Our source for the inhibition and IC50 values is ChEMBL document CHEMBL4680269, “N-benzylpiperidinol derivatives as novel USP7 inhibitors: Structure-activity relationships and X-ray crystallographic studies” (Eur J Med Chem, 2020).

In assay [1] the target is T1, Ubiquitin carboxyl-terminal hydrolase 7 (Homo sapiens, UniProt Q93009). As to the kind of experiment: Inhibition of recombinant human N-terminal His6-tagged full length USP7 expressed in baculovirus infected Sf21 cells at 10 uM using monoubiquitinated ubiquitin-rhodamine as substrate incubated for 30 mins followed by Ub-Rho addition and measured after 2 hrs by spectrophotometry relative to control. The conditions noted are these: time 2.5 hrs.
Target sequence in this assay (Q93009 whole entry, looked up): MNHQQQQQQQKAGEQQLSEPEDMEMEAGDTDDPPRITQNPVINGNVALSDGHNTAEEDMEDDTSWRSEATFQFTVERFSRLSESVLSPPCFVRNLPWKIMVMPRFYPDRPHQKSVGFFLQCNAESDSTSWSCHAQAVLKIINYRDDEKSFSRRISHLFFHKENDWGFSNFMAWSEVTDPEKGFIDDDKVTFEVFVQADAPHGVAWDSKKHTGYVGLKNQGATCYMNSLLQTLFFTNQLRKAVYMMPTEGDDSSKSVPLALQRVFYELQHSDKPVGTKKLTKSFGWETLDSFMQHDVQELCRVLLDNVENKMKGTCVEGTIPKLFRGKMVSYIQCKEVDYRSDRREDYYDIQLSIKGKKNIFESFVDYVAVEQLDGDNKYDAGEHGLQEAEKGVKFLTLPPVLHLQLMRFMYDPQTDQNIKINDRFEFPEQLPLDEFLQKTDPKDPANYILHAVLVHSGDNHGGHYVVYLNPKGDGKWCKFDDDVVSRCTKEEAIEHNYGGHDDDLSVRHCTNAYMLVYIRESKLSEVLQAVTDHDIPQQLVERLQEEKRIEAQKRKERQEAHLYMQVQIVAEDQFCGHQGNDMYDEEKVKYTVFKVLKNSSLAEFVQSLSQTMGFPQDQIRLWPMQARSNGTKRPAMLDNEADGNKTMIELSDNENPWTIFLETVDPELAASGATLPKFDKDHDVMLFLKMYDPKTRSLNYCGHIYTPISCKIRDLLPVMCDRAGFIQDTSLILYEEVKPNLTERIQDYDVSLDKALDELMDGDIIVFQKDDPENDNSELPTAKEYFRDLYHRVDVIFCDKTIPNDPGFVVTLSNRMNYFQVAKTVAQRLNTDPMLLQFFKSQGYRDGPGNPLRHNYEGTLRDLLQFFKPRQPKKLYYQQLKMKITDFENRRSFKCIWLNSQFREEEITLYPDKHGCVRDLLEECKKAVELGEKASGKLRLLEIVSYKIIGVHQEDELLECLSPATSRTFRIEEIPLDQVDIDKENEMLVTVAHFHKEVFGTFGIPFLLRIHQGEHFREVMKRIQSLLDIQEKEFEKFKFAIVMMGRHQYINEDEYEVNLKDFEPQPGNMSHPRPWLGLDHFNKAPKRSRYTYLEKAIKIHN

The target of assay [2] is T1, Ubiquitin carboxyl-terminal hydrolase 7. Description: Inhibition of recombinant human N-terminal His6-tagged full length USP7 expressed in baculovirus infected Sf21 cells using monoubiquitinated ubiquitin-rhodamine as substrate incubated for 30 mins followed by Ub-Rho addition and measured after 2 hrs by spectrophotometry.
Target sequence in this assay (Q93009 whole entry): as the sequence (Q93009 whole entry, looked up) above

Active and inactive are the calls of the source. The rule behind the calls is not given here.

In general, inhibition refers to the relative decrease from the control value, in per cent. Regarding `O=c1c2cnn(-c3ccc(F)cc3)c2ncn1CC1(O)CCN(c2ncccc2Br)CC1`, in assay [1], the inhibition worked out at 32%.

As a reminder, the IC50 is the point on the concentration scale where inhibition reaches its midpoint. Consider `O=c1c2cnn(-c3ccc(F)cc3)c2ncn1CC1(O)CCN(Cc2ccc(F)cc2Cl)CC1`, for which the IC50 in assay [2] was found to be 1.6 µM.

For `N#Cc1ccccc1CN1CCC(O)(Cn2cnc3c(cnn3-c3ccc(F)cc3)c2=O)CC1`, in assay [2], the IC50 was found to be 8.1 µM.

Regarding `O=c1c2cnn(-c3ccc(F)cc3)c2ncn1CC1(O)CCN(Cc2ccccc2Br)CC1`, the half-maximal inhibitory concentration (IC50) in assay [2] amounted to 3.1 µM.

In the case of `O=Cc1cccnc1N1CCC(O)(Cn2cnc3c(cnn3-c3ccc(F)cc3)c2=O)CC1`, the inhibition entry in assay [1] is “inactive”.

On to `O=c1c2cnn(-c3ccc(F)cc3)c2ncn1CC1(O)CCN(Cc2ccc(Cl)cc2)CC1`, for which, in assay [2], the half-inhibitory concentration (IC50) stood at 8 µM.

With `COC(=O)c1ccc(CN2CCC(O)(Cn3cnc4c(cnn4-c4ccc(F)cc4)c3=O)CC2)c(F)c1`, the IC50 in assay [2] was 0.8 µM.

Consider `O=c1c2cnn(-c3ccc(F)cc3)c2ncn1CC1(O)CCN(c2ncccn2)CC1`, for which the inhibition result in assay [1] was “inactive”.

In the case of `COC(=O)c1ccc(CN2CCC(O)(Cn3cnc4c(cnn4-c4ccc(F)cc4)c3=O)CC2)cc1`, the IC50 in assay [2] amounted to 4.5 µM.

Consider `N#Cc1cc(Cl)ccc1CN1CCC(O)(Cn2cnc3c(cnn3-c3ccc(F)cc3)c2=O)CC1`, for which, in assay [2], the 50% inhibitory concentration (IC50) came out at 11.4 µM.

For `O=c1c2cnn(-c3ccc(F)cc3)c2ncn1CC1(O)CCN(Cc2ccccc2Cl)CC1`, the IC50 in assay [2] turned out to be 3.4 µM.

For the molecule `COC(=O)c1ccc(CN2CCC(O)(Cn3cnc4c(-c5ccc(CNC(C)=O)cc5)n(C)nc4c3=O)CC2)c(Cl)c1`, the half-inhibitory concentration (IC50) in assay [2] worked out at 0.121 µM.

In the case of `O=Cc1cccc(N2CCC(O)(Cn3cnc4c(cnn4-c4ccc(F)cc4)c3=O)CC2)n1`, in assay [1], the inhibition entry is “inactive”.

On to `O=c1c2cnn(-c3ccc(F)cc3)c2ncn1CC1(O)CCN(c2ccccn2)CC1`, for which, in assay [1], the inhibition entry was “inactive”.

For the molecule `O=c1c2cnn(-c3ccc(F)cc3)c2ncn1CC1(O)CCN(c2nccs2)CC1`, in assay [1], the inhibition result is “inactive”.

With `O=c1c2cnn(-c3ccc(F)cc3)c2ncn1CC1(O)CCN(c2ncccc2I)CC1`, the inhibition in assay [1] was found to be 32%.

Take `COC(=O)c1ccc(CN2CCC(O)(Cn3cnc4c(Br)n(C)nc4c3=O)CC2)c(Cl)c1`: the half-maximal inhibitory concentration (IC50) in assay [2] was 0.157 µM.

Regarding `N#Cc1cccnc1N1CCC(O)(Cn2cnc3c(cnn3-c3ccc(F)cc3)c2=O)CC1`, in assay [1], the inhibition result is “inactive”.

Consider `O=c1c2cnn(-c3ccc(F)cc3)c2ncn1CC1(O)CCN(c2ncccc2Cl)CC1`, for which the inhibition in assay [1] was found to be 32%.

`COC(=O)c1ccc(CN2CCC(O)(Cn3cnc4c(cnn4-c4ccc(F)cc4)c3=O)CC2)c(Cl)c1`: the 50% inhibitory concentration (IC50) in assay [2] was determined as 0.8 µM.

For `O=c1c2cnn(-c3ccc(F)cc3)c2ncn1CC1(O)CCN(c2ncccc2F)CC1`, the inhibition result in assay [1] was “inactive”.

Consider `O=c1c2cnn(-c3ccc(F)cc3)c2ncn1CC1(O)CCN(Cc2ccc(Cl)cc2Cl)CC1`, for which the 50% inhibitory concentration (IC50) in assay [2] came out at 3.3 µM.

Take `O=c1c2cnn(-c3ccc(F)cc3)c2ncn1CC1(O)CCN(Cc2ccccc2F)CC1`: in assay [2], the IC50 amounted to 9.8 µM.

Regarding `CCOC(=O)c1csc(N2CCC(O)(Cn3cnc4c(cnn4-c4ccc(F)cc4)c3=O)CC2)n1`, the inhibition result in assay [1] is “inactive”.

Regarding `O=c1c2cnn(-c3ccc(F)cc3)c2ncn1CC1(O)CCN(Cc2ccc(Br)cc2Cl)CC1`, the IC50 in assay [2] came to 1.9 µM.

Regarding `COC(=O)c1ccc(CN2CCC(O)(Cn3cnc4c(cnn4-c4ccc(F)cc4)c3=O)CC2)c(Br)c1`, in assay [2], the IC50 is 0.9 µM.

As to `O=c1c2cnn(-c3ccc(F)cc3)c2ncn1CC1(O)CCN(c2cccc(C(F)(F)F)n2)CC1`, the inhibition entry in assay [1] was “inactive”.

With `COC(=O)c1ccc(CN2CCC(O)(Cn3cnc4c(-c5ccc(CNC(=O)OC(C)(C)C)cc5)n(C)nc4c3=O)CC2)c(Cl)c1`, the IC50 in assay [2] came out at 0.209 µM.

Turning to `O=c1c2cnn(-c3ccc(F)cc3)c2ncn1CC1(O)CCN(c2ccc3ccccc3n2)CC1`, the inhibition entry in assay [1] was “inactive”.

As to `O=c1c2cnn(-c3ccc(F)cc3)c2ncn1CC1(O)CCN(Cc2ccc([N+](=O)[O-])cc2)CC1`, the IC50 in assay [2] was 9 µM.

`O=c1c2cnn(-c3ccc(F)cc3)c2ncn1CC1(O)CCN(Cc2ccc(Br)cc2)CC1`: the IC50 in assay [2] worked out at 6.7 µM.
